Here are results for eight substances from patent publication US9133242B2, “Peptide for use as a medicament, in particular for the treatment of cancer” (priority 2010, dated 2015).

Entries after “also recorded” stand apart in the source; their conditions may differ. Where no end group is shown, it is not given here.

Holding throughout (format): cell-based
Series [1] has as its system A 549 (Human lung tumor). As to the kind of experiment: MTT cell viability, A549 lung cancer line. The note with it: variants tested on the A549 line; for evaluation of the activity (in words): compared with peptide SEQ. 1. As for the experimental part:
Approximately 10 000 cells were seeded, in a volume of 0.2 mL per well, into 96-well microplates for 24 hours before treatment with the peptide of SEQ. 1. The cells were incubated for 48 to 72 hours at 37° C. in a CO2 incubator in the presence or absence of the peptide of SEQ. 1 at various concentrations.
Following this incubation, MTT reagent or 3-(4,5-dimethyl[…])-2,5-diphenyltetrazolium bromide (0.5 mg/ml in a volume of 0.1 ml) was added to each well and incubated for 2 hours at 37° C.
The tetrazolium ring contained by the MTT is then reduced by the succinate dehydrogenase of the live cells, to give formazan. Next, the supernatant was removed and 0.1 ml of lysis buffer (isopropanol containing 10% of triton×100 and 10% of 1N HCl) was added in order to dissolve the bluish violet formazan precipitate formed. After a few minutes, the absorbance was determined at ambient temperature using a microplate reader at a test wavelength of 562 nm. Wells not comprising peptide of SEQ. 1 were used so as to verify the viability of control cells. IC 50 (concentration of peptide of SEQ. 1 causing 50% cytotoxicity on these cell lines) values for each cell variety were evaluated by means of the ratio of the absorbance of the treated cells to the absorbance of the control cells. […]

The test system of series [2] is TX 1 cells (line derived from breast tumors which no longer respond to Taxol). Description: Growth inhibition of Taxol-resistant TX 1 cells. The note with it: after 24 H of culture. As for the experimental part:
(§1) The studies were carried out on two cell lines, TX 1 and TX 2, derived from breast tumors which no longer respond to Taxol. […] 1 and the peptide of SEQ. 7. […]

Series [3] concerns TX 2 cells (line derived from breast tumors which no longer respond to Taxol). Description: Growth inhibition of Taxol-resistant TX 2 cells. The note with it: after 24 H of culture. As for the experimental part:
as §1

For series [4], the system named is FIBRO 1 and FIBRO 2 nontumorigenic fibroblast cells. As to the kind of experiment: Immunofluorescent labeling of microtubule network, healthy fibroblasts. The note with it: human fibroblasts FIBRO 1 and FIBRO 2, 15 μM. As for the experimental part: FIG. 4 represents photos of non-tumor cell lines, FIBRO 1 and FIBRO 2 (fibroblast cells), treated with the peptide of SEQ. 1 at 15 μM and not treated with this peptide (control);
The specific activity of the peptide of SEQ. Two varieties of nontumorigenic fibroblast cells: FIBRO 1 and FIBRO 2, were brought into contact with the peptide of SEQ. 1 in order to see whether the microtubule network of healthy cells was also disrupted by the peptide. […] 1 (no modification of polymerized tubulin density), at the very least at concentrations of peptide of SEQ. 1 used for the cancer cells (15 μM). This observation represents an important advance of the present invention.

Consider “INWKKIAKKVAGML-NH2 [SEQ. 7, INWKKIAKKVAGML-NH2]”, for which, in series [1], the “evaluation of the activity (in words)” value is listed as “absolutely equivalent to the peptide SEQ. 1; also recorded: Very good activity”. The growth inhibition entry in series [2] and in series [3] was “significant” in each case.

Turning to “INWLAIAAKVAGML [SEQ. 4, INWLAIAAKVAGML-NH2]”, the “evaluation of the activity (in words)” value in series [1] is “absolutely equivalent to the peptide SEQ. 1; also recorded: Very good activity”.

With “INWLAIAKKVAGML [SEQ. 3, INWLAIAKKVAGML-NH2]”, the “evaluation of the activity (in words)” value in series [1] is recorded as “absolutely equivalent to the peptide SEQ. 1; also recorded: Very good activity”.

In the case of “INWLKIAKKVAG-NH2 [SEQ. 19, INWLKIAKKVAG-NH2]”, the “evaluation of the activity (in words)” value in series [1] is “Medium activity”.

Take “INWLKIAKKVAGM-NH2 [SEQ. 18, INWLKIAKKVAGM-NH2]”: the “evaluation of the activity (in words)” value in series [1] is “Medium activity”.

In the case of INWLKIAKKVAGML [SEQ. 2], in series [1], the 50% inhibitory concentration (IC50) is around 15 µM and the “evaluation of the activity (in words)” value was “Medium activity”.

Take “INWLKIAKKVAGML-NH2 [SEQ. 1, INWLKIAKKVAGML-NH2]”: the “modification of polymerized tubulin density in healthy cells” value in series [4] is “do not respond at all”.

For the substance “INWLKIAKKVKGML [SEQ. 9, INWLKIAKKVKGML-NH2]”, the “evaluation of the activity (in words)” value in series [1] was “absolutely equivalent to the peptide SEQ. 1; also recorded: Very good activity”.
